Reference: patent publication US20220389067A1, “Methods of Treating Neurodegenerative Diseases Caused by G4C2 Expansion in C9ORF72” (The Board of Trustees of the Leland Stanford Junior …, priority 2019, published 2022)

Tests used:
[1] = tested on: GR80; experiment: Effect of CAT-tailing inhibition on poly(GR) level; assay type: cell-based; details: FIG. 82
Text: Ribosome-stalled NPC is modified by a non-templated, 40S-independent CAT-tailing process that depends on Tae2/Clbn/NEMF family proteins. CAT-tailed substrates escaping the quality control system can accumulate and form aggregates. […] Consistently, RNAi of a fly homolog of Vms1, a stress-responsive mitochondrial RQC factor that antagonizes CAT-tailing by cleaving peptidyl-tRNA bond, increased high MW GR80 signal and total GR80 abundance (FIG. 77), whereas overexpression of mammalian Vms1 (ANKZF1) had opposite effect (FIG. 78). In C9ALS fibroblasts, ANKZF1 RNAi increased, whereas NEMF RNAi decreased poly(GR) (FIG. 78). Thus steady-state poly(GR) level is positively correlated with a CAT-tailing-like process.
The role of Ala- or Thr-tRNA synthetase (AARS or TARS) was examined. […] The specificity of the ARS effect was shown by the lack of effect of the other ARSs tested (FIG. 79). Thus AARS/TARS, and possibly select other ARSs (e.g., IARS), appear to be involved in GR80 CAT-tailing, and that CAT-tailing confers stabilization, aggregation, and toxicity. Further supporting this notion, poly(GR) containing an artificial CAT-tail (GR71-AT15) formed prominent aggregates on mitochondria on its own, and its level was not affected by NEMF RNAi or anisomycin treatment (FIG. 82).

[2] = tested on: fibroblasts from C9-ALS/FTD patients carrying C9ORF72 G4C2 repeat expansion; experiment: Nigericin treatment of C9-ALS/FTD patient fibroblasts; assay type: cell-based, human
Method: (§1) Finally, it was tested whether the pathogenic mechanisms uncovered in flies are relevant to GR toxicity in patient cells. In fibroblasts from C9-ALS/FTD patients carrying C9ORF72 G4C2 repeat expansion, GR was present in the mitochondrial fraction, as shown by dot blot (FIG. 46) and immunostaining (FIG. 46), although nuclear GR was also detected (FIG. 46). […] Thus, altered mitochondrial inner membrane structure and ion homeostasis are conserved features of C9-ALS. There were also GR interactions with Mic27/Apool in patient fibroblasts (FIG. 49). Nigericin treatment (FIGS. 50 & 51) or knockdown of key MICOS components (FIGS. 49 & 52) rescued the mitochondrial defects in patient fibroblasts. […] Nigericin treatment (FIG. 54) or knockdown of key MICOS components (FIG. 53) reduced the GR level in patient cells, but nigericin had no effect on the GA level (FIG. 53).

[3] = tested on: HEK293 cells transfected with GR80; experiment: mito-K+ in HEK293 cells transfected with GR80; assay type: cell-based; details: HEK293 cells transfected with GR80, FIG. 53
Method: as §1

[4] = tested on: GR80 fly muscle; experiment: Nigericin treatment of GR80 transgenic flies; assay type: in vivo, Drosophila
Text: To further test whether high MMP and altered ion homeostasis contribute to GR80 toxicity, GR80 flies we treated with nigericin, a K^+/H^+ antiporter that can re-balance mitochondrial matrix ion levels. […] Moreover, the aberrant interactions between MICOS subunits caused by GR80 (FIG. 42) and the elevated mito-K^+ in GR80 flies were rescued after nigericin treatment (FIGS. 41 & 42). Thus, by restoring mitochondrial ion homeostasis, nigericin may affect the MICOS structure and, in turn, GR80 stability, similar to the effects of the genetic manipulation of MICOS, although other mechanisms of nigericin action cannot be excluded.
Newly hatched flies were collected and placed into vials with instant fly food (Carolina Biological Supply Company, USA) mixed with different doses ([…]) of Nigericin (Cayman Chemical, 11437) from the stock solution (50 mM dissolved in DMSO). The flies were fed for 7 days and changed with fresh vial every 24 hours. After treatments, fly thoracic samples were harvested and used for sample preparation.

[5] = tested on: C9ALS/FTD BAC transgenic mice (C9-500); experiment: Rotarod assay in C9-500 BAC transgenic mice; assay type: in vivo, mouse; details: C9-500 mice, i.p. 40 mg/kg/day, FIG. 95
Method: (§2) Non-canonical Notch regulation of poly(GR) was then tested in mammalian cells. In HEK293T cells, overexpression of Notch (FIG. 91), or treatment of cells with the ATK activator SC79 (FIGS. 91 & 92) reduced Flag-GR80 level, whereas small molecule inhibitor of AKT (AKTi) or VCP (VCPi) increased Flag-GR80 level (FIG. 93). Similar to fly tissue, the Notch overexpression effect was blocked by VCPi (FIG. 91). […] On the other hand, AKTi or VCPi increased poly(GR) level (FIGS. 78 & 94). To further test the in vivo relevance, the C9ALS/FTD BAC transgenic mice (C9-500) were examined, which express a human C9orf72 gene with ˜500 G4C2 repeats. Treatment of C9-500 mice by i.p. injection of SC79 (40 mg/kg/day) improved motor behavior as detected with the rotarod assay (FIG. 95). This was correlated with rescue of muscle mitochondrial morphology (FIGS. 95 & 96) and reduction of poly(GR) (FIGS. 97 & 98) but not poly(GA) (FIGS. 98 & 99) levels in muscle tissue. […]
Female C9-500 BAC transgenic mice were i.p. injected with sc79 (Selleckchem) at 40 mg/kg/day (n=10) or vehicle (DMSO [Sigma]: PEG300 [Spectrum]: 2-Hydroxypropyl-beta-cyclodextran (20%) [Sigma] at 1:3:1) (n=8) from 16 weeks of age and continued for 3 months. […] Once all the mice were “ready”, the start button was pushed and the test began. […] The fall-off times of each animal were recorded and used for statistical analysis.

[6] = tested on: Flag-GR80 in HEK293T cells; experiment: Flag-GR80 level in HEK293T cells (non-canonical Notch/AKT/VCP modulation); assay type: cell-based; details: FIGS. 91-93
[7] = tested on: muscle tissue of C9-500 mice; experiment: Muscle mitochondrial morphology and DPR levels in C9-500 mice; assay type: in vivo, mouse; details: i.p. 40 mg/kg/day
Method: as §2
Female C9-500 BAC transgenic mice were i.p. injected with sc79 (Selleckchem) at 40 mg/kg/day (n=10) or vehicle (DMSO [Sigma]: PEG300 [Spectrum]: 2-Hydroxypropyl-beta-cyclodextran (20%) [Sigma] at 1:3:1) (n=8) from 16 weeks of age and continued for 3 months. […] Once all the mice were “ready”, the start button was pushed and the test began. […] The fall-off times of each animal were recorded and used for statistical analysis. […]

[8] = tested on: patient fibroblasts; experiment: poly(GR) level and mitochondrial morphology in patient fibroblasts (AKT/VCP modulation); assay type: cell-based, human

COc1ccc(C[C@H]2NC[C@H](O)[C@H]2OC(C)=O)cc1 [Anisomycin, anisomycin]
level of poly(GR) containing an artificial CAT-tail (GR71-AT15) [1]: not affected

CO[C@@H]1C[C@@H](C[C@H]2CC[C@H](C)[C@H]([C@@H](C)C(=O)O)O2)O[C@]2(O[C@](C)([C@H]3CC[C@@](C)([C@@H]4O[C@@H]([C@H]5O[C@@](O)(CO)[C@H](C)C[C@@H]5C)C[C@@H]4C)O3)C[C@H]2C)[C@@H]1C [nigericin]
GR level in patient cells ([2]; C9-ALS/FTD patient fibroblasts, FIG. 54): reduced
mitochondrial defects in patient fibroblasts ([2]; C9-ALS/FTD patient fibroblasts, FIGS. 50 & 51): rescued
GA level ([2]; patient cells, FIG. 53): no effect
GR-induced mito-K+ increase [3]: reduced
GR80 level in fly muscle ([4]; GR80 flies, FIG. 44): significantly reduced
mitochondrial morphology ([4]; GR80 flies, low concentrations of nigericin in food, FIG. 43): effectively restored
GR80 fly wing-posture defect ([4]; GR80 flies, nigericin in food, FIG. 44): rescue
aberrant interactions between MICOS subunits caused by GR80 ([4]; after nigericin treatment, FIG. 42): rescued
elevated mito-K+ in GR80 flies ([4]; after nigericin treatment, FIGS. 41 & 42): rescued
GA80 level ([4]; flies, specificity control, FIG. 42): did not affect

CCOC(=O)C1=C(N)Oc2ccc(Cl)cc2C1C(C#N)C(=O)OCC (centres unmarked) [SC79]
motor behavior as detected with the rotarod assay [5]: improved
Flag-GR80 level [6]: reduced
muscle mitochondrial morphology ([7]; FIGS. 95 & 96): rescue
poly(GR) level in muscle tissue ([7]; FIGS. 97 & 98): reduction
mitochondrial morphology ([8]; FIG. 93): rescued
poly(GR) level ([8]; FIGS. 78 & 94): significantly reduced
